In US6763607B2, “Method for making homogeneous spray-dried solid amorphous drug dispersions utilizing modified spray-drying apparatus” (Pfizer Inc., priority 2002, dated 2004):

Assay: in vitro dissolution test (concentration enhancement) in PBS, microcentrifuge method
Assay type: physicochemical
Details: PBS pH 6.5, 37° C.
Method: For this test, samples containing 7.2 mg of Example 1 were added to microcentrifuge tubes, in duplicate. The tubes were placed in a 37° C. temperature-controlled chamber, and 1.8 mL PBS at pH 6.5 and 290 mOsm/kg was added. The samples were quickly mixed using a vortex mixer for about 60 seconds. The samples were centrifuged at 13,000 G at 37° C. for 1 minute. […] The contents of the tubes were mixed on the vortex mixer and allowed to stand undisturbed at 37° C. until the next sample was taken. […] Control 1 and crystalline Drug 1 were tested using the same procedure. The concentration of drug obtained in these samples were used to determine the values of the maximum concentration of drug in the first ninety minutes (Cmax90) and the area under the curve of drug concentration versus time in the first ninety minutes (AUC90). […] The physical properties of the dispersions of Example 3, Control C2 and crystalline Drug 2 alone were determined as Example 1 with the following exceptions. […] Samples were analyzed by HPLC, with absorbance at 297 nm (Hewlett Packard 1100 HPLC, Zorbax SB C18 column, 35% acetonitrile/65% H2O).

[1] = Drug 2, 2000 μg/mL if all of the drug had dissolved

Row | AUC90 (Drug 1, area under drug concentration versus time curve in the first ninety minutes) | Cmax90 (Drug 1, maximum concentration of drug in the first ninety minutes) | Drug 1 Concentration (supernatant after centrifugation, time 0 min) | Drug 1 AUC (time 0 min) | Drug 1 AUC (time 4 min) | Drug 1 Concentration (time 4 min) | Drug 1 AUC (time 10 min) | Drug 1 Concentration (time 10 min) | Drug 1 AUC (time 20 min) | Drug 1 Concentration (time 20 min) | Drug 1 AUC (time 40 min) | Drug 1 Concentration (time 40 min) | Drug 1 AUC (time 90 min) | Drug 1 Concentration (time 90 min) | Drug 1 AUC (time 1200 min) | Drug 1 Concentration (time 1200 min) | AUC90 [1] | Cmax90 [1] | SMILES
1 | <88 µg·min/mL | <1 µg/mL | 0 µg/mL | 0 min-μg/ml | <2 min-μg/ml | <1 µg/mL | <8 min-μg/ml | <1 µg/mL | <18 min-μg/ml | <1 µg/mL | <38 min-μg/ml | <1 µg/mL | <88 min-μg/ml | <1 µg/mL | <1,200 min-μg/ml | <1 µg/mL |  |  | CCOC(=O)N1c2ccc(C(F)(F)F)cc2C(N(Cc2cc(C(F)(F)F)cc(C(F)(F)F)c2)C(=O)OC)CC1CC (stereo not drawn) [Crystalline Drug 1, 4-[(3,5-bis-trifluoromethyl-benzyl)-methoxycarbonyl-amino]-2-ethyl-6-trifluoromethyl-3,4-dihydro-2H-quinoline-1-carboxylic acid ethyl ester]
2 |  |  |  |  |  |  |  |  |  |  |  |  |  |  |  |  | 12,800 min*μg/mL | 149 µg/mL | O=C(N[C@@H](Cc1ccccc1)[C@@H](O)C(=O)N1C[C@@H](O)[C@@H](O)C1)c1cc2cc(Cl)ccc2[nH]1 [Crystalline Drug 2, 5-chloro-1H-indole-2-carboxylic acid [(1S)-benzyl-(2R)-hydroxy-3-((3R,4S)-dihydroxy-pyrrolidin-1-yl-)-3-oxypropyl]amide]
